Assay results taken from patent US20200148937A1, “INHIBITING HYDROCARBON HYDRATE AGGLOMERATION” (COMMONWEALTH SCIENTIFIC AND INDUSTRIAL RESEARCH ORGANISATION, priority 2017, published 2020).

Experiment: X-ray diffraction of the gas hydrates formed
Type: physicochemical
Conditions: systems 1-3; combination of structure I and structure II hydrate in all three systems
Excerpt: FIG. 17(a) illustrates the X-ray diffraction pattern of the gas hydrates formed in systems 1-3.
The diffraction studies indicate that regardless of the nature of the AA used the XRD pattern of the solids formed are very similar indicating essentially the same hydrate mixtures are formed in each of systems 1-3. In short, there is a combination of structure I and structure II hydrate formed in all three systems considered.

**Q.** Which “effect on structure of the hydrate formed (XRD pattern)” value does the source give for `Cc1c(C)c2c(c(C)c1OC(=O)CCC(=O)O)CCC(C)(CCCC(C)CCCC(C)CCCC(C)CCCC(C)C)O2` (stereo not shown) [tocopherol succinate] here?
**A.** does not alter the structure of the hydrate formed
